Data: patent publication US20190055231A1, “BACE1 INHIBITORS” (Hoffmann-La Roche Inc., priority 2016, published 2019)
Like-named read-outs stand apart in the source and are kept apart here.

How the values were obtained:
[1] = system: Aβ40 in brain of wild-type mice; test: Mouse acute in vivo model (inhibition of Aβ40 in brain of wild-type mice); conditions: 4 h post dose
Experimental: Mouse Acute In Vivo Model (Inhibition of Aβ40 in Brain of Wild-Type Mice)
Single Dose Efficacy in Mice
The mouse single dose efficacy was measured in brain homogenate from C57Bl/6J wildtype mice after DEA extraction as described in H. Hilpert et al., J. Med. Chem. 2013, 56, 3980-3995 (dx.doi.org/10.1021/jm400225m).
(§1) Aβ 40 concentration was determined after solid phase extraction as described above and following a modified protocol from Perkin-Elmer with a commercially available antibody against the N-terminal part of rat Aβ (252Q6, Invitrogen cat. No. AMB0062) and an in-house C-terminal specific anti-Aβ40 antibody (BAP-24, Brockhaus M. et al., J. Neuroreport, 1998, 9:1481-1486) bound to acceptor beads (PerkinElmer, Cat. 6772002). 20 μl analyte per well (reconstituted extracts or standard) were loaded to a White Optiplate-96 (Perkin-Elmer, Cat#6005290). Then, a mixture of biotinylated BAP24 antibody (1:2000 diluted at approximately 1 nM final concentration) and antibody 252Q6 bound to AlphaLISA acceptor beads (Perkin-Elmer cat. No. 6772002 (1:100 diluted, 10 ug/mL final concentration) in 1× AlphaLISA buffer (Perkin-Elmer, AL000F) was added. After 1 hour room temperature incubation in the dark, 20 uL of a streptavidin coated donor beads dilution (40 μg/mL) were added and incubated for 30 minutes in the dark. Light emission at 615 nm was recorded using an EnVision AlphaScreen Reader (Perkin-Elmer). Levels of Aβ40 were calculated as percentage of the baseline samples from non-treated animals.
Aβ40 lowering was determined after oral administration in wild-type mice (C57Bl/6J mice, n=3-4) 4 h post dosing. Wild-type mice were used as they have a normal physiological level of APP expression and are thus expected to provide a better physiological model for Aβ-peptide production than APP-transgenic organisms. In vivo efficacy is a key factor for appropriate drug candidates, being more relevant than in vitro activities.

hERG channel = hERG channel (Homo sapiens, UniProt Q12809); test: hERG IC20 assay; type: cell-based
hERG channel, sequence (Q12809 whole entry): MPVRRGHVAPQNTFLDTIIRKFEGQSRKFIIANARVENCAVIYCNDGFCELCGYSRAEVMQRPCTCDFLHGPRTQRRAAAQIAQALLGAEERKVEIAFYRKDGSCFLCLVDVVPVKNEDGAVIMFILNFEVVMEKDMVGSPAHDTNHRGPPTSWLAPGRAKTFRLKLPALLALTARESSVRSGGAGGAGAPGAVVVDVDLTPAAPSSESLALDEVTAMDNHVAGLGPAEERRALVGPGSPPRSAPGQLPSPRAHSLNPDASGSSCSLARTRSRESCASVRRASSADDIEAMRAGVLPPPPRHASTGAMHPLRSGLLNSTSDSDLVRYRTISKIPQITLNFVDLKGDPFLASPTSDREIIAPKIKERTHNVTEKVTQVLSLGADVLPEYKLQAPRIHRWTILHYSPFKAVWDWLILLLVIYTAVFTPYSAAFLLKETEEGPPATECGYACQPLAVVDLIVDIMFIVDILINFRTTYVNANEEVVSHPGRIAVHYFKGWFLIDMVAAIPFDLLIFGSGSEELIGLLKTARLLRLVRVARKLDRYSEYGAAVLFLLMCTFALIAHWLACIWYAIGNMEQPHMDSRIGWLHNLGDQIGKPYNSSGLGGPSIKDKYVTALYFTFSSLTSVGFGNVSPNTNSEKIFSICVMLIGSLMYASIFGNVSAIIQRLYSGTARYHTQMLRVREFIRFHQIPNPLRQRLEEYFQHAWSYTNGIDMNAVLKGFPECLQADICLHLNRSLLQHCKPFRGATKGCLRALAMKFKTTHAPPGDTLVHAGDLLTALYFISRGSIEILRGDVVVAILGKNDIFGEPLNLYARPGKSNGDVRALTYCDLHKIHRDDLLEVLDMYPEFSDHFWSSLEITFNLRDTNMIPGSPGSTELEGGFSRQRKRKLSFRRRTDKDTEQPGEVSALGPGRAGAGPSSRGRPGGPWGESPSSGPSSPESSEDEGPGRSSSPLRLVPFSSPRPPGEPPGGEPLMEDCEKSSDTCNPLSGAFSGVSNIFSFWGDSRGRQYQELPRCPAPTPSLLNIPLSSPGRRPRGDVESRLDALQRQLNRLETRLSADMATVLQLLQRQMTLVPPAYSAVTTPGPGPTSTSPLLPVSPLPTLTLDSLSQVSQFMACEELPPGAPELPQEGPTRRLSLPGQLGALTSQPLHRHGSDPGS
From the text: The methods to determine the hERG IC20 values was described in Industrializing electrophysiology: HT automated patch clamp on SyncroPatch® 96 using instant frozen cells. Polonchuk L., Methods Mol Biol. 2014; 1183:81-92. (doi: 10.1007/978-1-4939-1096-0_5.) PMID:25023303
QT prolongation is a cardiovascular risk caused by drug candidates which inhibit the hERG channel (human ether a go-go). A sufficient safety margin between the hERG IC20 value and the free plasma concentration necessary to achieve the envisaged thereapeutic effects is desired (ICH. The nonclinical evaluation of the potential for delayed ventricular repolarization (QT interval prolongation) by human pharmaceuticals (S7B), issued as CPMP/ICH/423/02, adopted by CHMP in May 2005 (http://www.ich.org/cache/compo/276-254-1.html; Redfern W S, Carlsson L, Davis A S, Lynch W G, MacKenzie I, Palethorpe S, Siegl P K, Strang I, Sullivan A T, Wallis R, Camm A J, Hammond T G. Relationships between preclinical cardiac electrophysiology, clinical QT interval prolongation and torsade de pointes for a broad range of drugs: evidence for a provisional safety margin in drug development. Cardiovasc Res. 2003 Apr. 1; 58(1):32-45.)). Reducing the activity against efflux transporters expressed at the blood-brain-barrier such as P-glycoprotein P-gp, might result in reduction of the free plasma concentration by optimizing brain penetration.

Human P-gp = Human P-gp (Homo sapiens, UniProt P08183); test: P-gp transport assay (human); type: in vitro ADME; conditions: efflux ratio
Human P-gp, sequence (P08183 whole entry): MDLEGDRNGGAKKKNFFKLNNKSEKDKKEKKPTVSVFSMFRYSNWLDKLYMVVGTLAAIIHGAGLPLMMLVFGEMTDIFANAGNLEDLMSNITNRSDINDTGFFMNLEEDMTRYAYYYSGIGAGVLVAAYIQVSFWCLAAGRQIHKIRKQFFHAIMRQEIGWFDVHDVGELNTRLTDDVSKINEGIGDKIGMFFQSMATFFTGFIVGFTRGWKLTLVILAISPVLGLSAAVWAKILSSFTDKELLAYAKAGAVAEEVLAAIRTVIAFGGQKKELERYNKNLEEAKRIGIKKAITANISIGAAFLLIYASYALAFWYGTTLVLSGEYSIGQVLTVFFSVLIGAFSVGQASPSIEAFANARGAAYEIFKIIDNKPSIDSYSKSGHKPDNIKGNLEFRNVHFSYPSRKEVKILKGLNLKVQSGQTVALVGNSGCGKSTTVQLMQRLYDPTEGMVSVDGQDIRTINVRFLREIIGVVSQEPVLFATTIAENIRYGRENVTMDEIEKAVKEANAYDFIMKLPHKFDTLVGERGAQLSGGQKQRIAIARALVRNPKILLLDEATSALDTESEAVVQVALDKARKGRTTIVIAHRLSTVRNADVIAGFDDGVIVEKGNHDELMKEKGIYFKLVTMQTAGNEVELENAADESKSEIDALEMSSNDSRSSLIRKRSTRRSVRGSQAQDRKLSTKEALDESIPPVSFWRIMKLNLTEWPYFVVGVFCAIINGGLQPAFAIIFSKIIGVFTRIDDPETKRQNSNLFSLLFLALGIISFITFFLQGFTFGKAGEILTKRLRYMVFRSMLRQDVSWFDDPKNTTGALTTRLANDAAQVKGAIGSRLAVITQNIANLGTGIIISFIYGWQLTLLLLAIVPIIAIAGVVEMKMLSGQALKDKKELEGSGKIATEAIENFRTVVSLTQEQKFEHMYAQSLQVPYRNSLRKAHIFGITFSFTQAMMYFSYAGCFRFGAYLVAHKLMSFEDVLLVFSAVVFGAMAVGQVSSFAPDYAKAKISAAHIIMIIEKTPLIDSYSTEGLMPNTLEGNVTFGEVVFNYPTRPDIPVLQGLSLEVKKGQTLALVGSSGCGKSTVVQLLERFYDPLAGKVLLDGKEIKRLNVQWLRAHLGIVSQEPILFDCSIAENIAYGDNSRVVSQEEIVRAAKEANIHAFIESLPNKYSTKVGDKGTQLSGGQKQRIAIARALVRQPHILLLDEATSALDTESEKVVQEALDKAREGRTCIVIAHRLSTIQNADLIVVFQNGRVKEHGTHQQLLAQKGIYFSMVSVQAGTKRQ
From the text: (§2) P-Gp Transport Assay (Human and Mouse) (P-Gp Assay)
(§3) In the assay of the P-gp efflux ratio ER as described hereinabove, a compound with ER<2.5 is regarded most suitable. In addition, compounds with low hERG channel binding are suitable as well.

Mouse P-gp = Mouse P-gp (Mus musculus, UniProt P21447); test: P-gp transport assay (mouse); type: in vitro ADME; conditions: efflux ratio
Mouse P-gp, sequence (P21447 whole entry): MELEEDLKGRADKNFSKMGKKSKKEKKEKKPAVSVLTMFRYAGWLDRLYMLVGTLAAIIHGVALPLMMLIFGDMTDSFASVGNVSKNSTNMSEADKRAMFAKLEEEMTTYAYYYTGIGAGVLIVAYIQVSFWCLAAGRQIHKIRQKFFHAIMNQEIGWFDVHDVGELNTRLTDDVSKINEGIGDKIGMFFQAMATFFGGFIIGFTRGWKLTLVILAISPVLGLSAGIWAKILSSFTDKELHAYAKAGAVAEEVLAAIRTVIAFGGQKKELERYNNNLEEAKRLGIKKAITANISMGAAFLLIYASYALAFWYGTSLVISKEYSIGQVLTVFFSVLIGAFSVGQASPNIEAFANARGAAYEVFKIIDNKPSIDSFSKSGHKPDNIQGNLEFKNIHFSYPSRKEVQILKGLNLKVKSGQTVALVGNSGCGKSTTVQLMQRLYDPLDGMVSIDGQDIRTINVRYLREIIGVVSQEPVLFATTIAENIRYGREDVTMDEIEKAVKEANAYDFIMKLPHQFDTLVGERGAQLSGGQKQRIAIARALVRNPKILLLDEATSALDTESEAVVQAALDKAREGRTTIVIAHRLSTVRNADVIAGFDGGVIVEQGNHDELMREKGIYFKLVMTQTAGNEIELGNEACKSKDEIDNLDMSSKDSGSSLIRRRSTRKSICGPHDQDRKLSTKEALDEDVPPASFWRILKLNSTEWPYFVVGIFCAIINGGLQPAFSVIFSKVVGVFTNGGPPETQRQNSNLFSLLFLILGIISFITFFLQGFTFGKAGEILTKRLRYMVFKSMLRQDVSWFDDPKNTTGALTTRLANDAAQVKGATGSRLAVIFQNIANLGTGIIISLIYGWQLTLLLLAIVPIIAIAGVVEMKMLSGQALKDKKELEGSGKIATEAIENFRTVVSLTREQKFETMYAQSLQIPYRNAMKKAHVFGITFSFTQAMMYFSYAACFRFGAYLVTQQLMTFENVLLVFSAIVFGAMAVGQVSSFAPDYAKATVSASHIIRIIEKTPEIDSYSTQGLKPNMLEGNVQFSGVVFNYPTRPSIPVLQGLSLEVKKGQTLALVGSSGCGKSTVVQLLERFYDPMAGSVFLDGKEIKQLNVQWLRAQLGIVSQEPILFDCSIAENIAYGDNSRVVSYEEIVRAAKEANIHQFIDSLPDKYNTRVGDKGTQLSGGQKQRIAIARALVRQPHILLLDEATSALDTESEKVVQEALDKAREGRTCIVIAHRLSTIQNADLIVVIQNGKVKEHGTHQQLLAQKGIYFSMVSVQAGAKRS
From the text: as §2, §3

Rat single dose PK study = type: in vivo; conditions: 1 mg/kg; for concentration at 4 h: oral
Experimental: (§4) Rat Single Dose PK Study (Inhibition of CSF Aβ40 in Wistar Rats)
(§5) The rat single dose PK study was described in H. Hilpert et al., J. Med. Chem. 2013, 56, 3980-3995 (dx.doi.org/10.1021/jm400225m) with slight modifications.
(§6) Blood is transferred into a labeled EDTA-K2 Eppendorf tube and the sample is mixed by inverting the tubes several times. Blood is stored at −20° C.

CSF Aβ40 = test: Rat single dose study, inhibition of CSF Aβ40 in Wistar rats; type: in vivo; conditions: rat CSF Aβ40, 1 mg/kg, 4 h post dose
Experimental: as §4, §5
as §1, with “determined without” for “determined after”, “extraction” for “extraction as described above and”, “20 μL” for “20 uL”, “of Aβ 40” for “of Aβ40”

[2] = Cynomolgus monkey single dose PK study; type: in vivo, Cynomolgus monkey (Macacaca fascicularis)
From the text: Cynomolgus Monkey (Macacaca fascicularis) Single Dose PK Study and Plasma Aβ40 Determination
Blood and plasma collection will always be performed in the treatment cage. The animal care keeper grabs either one arm or one leg through the bars. The hairs are shaved for better visibility of the vein. The blood vessel is squeezed, the vein is punctured by using a butterfly and blood is taken. Once enough blood has been withdrawn a cotton swab is placed over the injection site and the needle is gently removed. Bleeding is stopped by pressing a cotton swab on the wound. Plasma samples were taken between 5 min and 48 h.
Plasma Preparation Cynomolgus
as §6

Human P-gp ER (Human P-gp): 1.1 | Mouse P-gp ER (Mouse P-gp): 2.4 | Plasma concentration at 4 h, free (Rat single dose PK study; 4 h, free unbound): 36.3 nM | Plasma concentration at 4 h (Rat single dose PK study; 4 h, total): 193 nM | concentration at 4 h (Rat single dose PK study; Wistar, plasma, 4 h, free unbound, read-out: Plasma concentration at 4 h, free): 36.3 nM | concentration at 4 h (Rat single dose PK study; Wistar, plasma, 4 h, free, read-out: Plasma concentration at 4 h, free): 85 ng/mL | concentration at 4 h (Rat single dose PK study; Wistar, plasma, 4 h, total, read-out: Plasma concentration at 4 h): 85 ng/mL | bioavailability (Rat single dose PK study; Wistar, plasma, po, read-out: Oral Bioavailability F): 19% | lower exposure compared to example 1 [2]: 5 fold | clearance ([2]; plasma): 9.7 mL/min/kg | bioavailability ([2]; plasma, po, read-out: Oral Bioavailability F): 63% | half-life ([2]; plasma, po, read-out: t1/2 p.o. (converted)): 11 h
SMILES: C[C@]1(c2nc(NC(=O)c3ccc(C#N)cn3)ccc2F)N=C(N)O[C@H](C(F)(F)F)[C@@H]1F [Comparator 6]
Brain Aβ-lowering 3 mg/kg ([1]; single p.o. dose 3 mg/kg): 86% | Brain Aβ-lowering 10 mg/kg ([1]; single p.o. dose 10 mg/kg): 94% | higher affinity to hERG than example 1 (hERG channel): 6 fold | IC20 (hERG channel; human, hERG IC20 assay): 400 nM | CSF Aβ-lowering 1 mg/kg at 4 h (CSF Aβ40): 77%
